Measurements: the NIST ThermoML archive (doi:10.1021/je0400052)

Columns and labels:
[1] = xn = mol fraction of the nth substance listed; details: 101.3 kPa, Liquid
[2] = refractive index (Na D-line) (dimensionless); xn = mol fraction of the nth substance listed; details: 101.3 kPa, Liquid

CCOC(=O)c1ccccc1 [ethyl benzoate] + CCc1ccccc1
Details	mass density, [1] [kg/m3]	refractive index, [2]	viscosity, [1] [mPa·s]
303.15 K, x1 = 0.0862	875.1	1.492	0.643
303.15 K, x1 = 0.1804	892.6	1.4932	0.711
303.15 K, x1 = 0.2589	910.2	1.4934	0.767
303.15 K, x1 = 0.3522	927.2	1.4942	0.857
303.15 K, x1 = 0.472	950.1	1.496	0.97
303.15 K, x1 = 0.5625	967	1.4968	1.071
303.15 K, x1 = 0.6722	984.9	1.4971	1.206
303.15 K, x1 = 0.7675	1002	1.4992	1.33
303.15 K, x1 = 0.8678	1019	1.4998	1.496
303.15 K, x1 = 0.9325	1040.9	1.5003	1.615
313.15 K, x1 = 0.0862	867	1.4911	0.57
313.15 K, x1 = 0.1804	884.3	1.4921	0.629
313.15 K, x1 = 0.2589	901.3	1.493	0.682
313.15 K, x1 = 0.3522	918.1	1.4937	0.745
313.15 K, x1 = 0.472	941.4	1.4954	0.844
313.15 K, x1 = 0.5625	960.4	1.4959	0.937
313.15 K, x1 = 0.6722	976.2	1.4963	1.063
313.15 K, x1 = 0.7675	993	1.4981	1.169
313.15 K, x1 = 0.8678	1009.7	1.4992	1.268
313.15 K, x1 = 0.9325	1027.4	1.4996	1.335

CCOC(=O)c1ccccc1 [ethyl benzoate] + Cc1ccc(C)cc1
Details	mass density, [1] [kg/m3]	refractive index, [2]	viscosity, [1] [mPa·s]
303.15 K, x1 = 0.0916	871.1	1.4931	0.622
303.15 K, x1 = 0.1757	889.3	1.4939	0.679
303.15 K, x1 = 0.2719	908.4	1.4951	0.765
303.15 K, x1 = 0.3616	925.3	1.4957	0.837
303.15 K, x1 = 0.4681	947.1	1.4965	0.951
303.15 K, x1 = 0.5703	964.8	1.497	1.045
303.15 K, x1 = 0.673	982.8	1.4983	1.181
303.15 K, x1 = 0.7781	1000.8	1.4988	1.325
303.15 K, x1 = 0.8651	1022.8	1.4995	1.469
303.15 K, x1 = 0.937	1040.8	1.5001	1.603
313.15 K, x1 = 0.0916	863	1.4912	0.55
313.15 K, x1 = 0.1757	880.9	1.4924	0.606
313.15 K, x1 = 0.2719	899.9	1.4948	0.686
313.15 K, x1 = 0.3616	917.3	1.495	0.739
313.15 K, x1 = 0.4681	937.5	1.4956	0.825
313.15 K, x1 = 0.5703	956	1.4963	0.9
313.15 K, x1 = 0.673	974	1.4972	1.008
313.15 K, x1 = 0.7781	993.2	1.4979	1.126
313.15 K, x1 = 0.8651	1010.2	1.4989	1.239
313.15 K, x1 = 0.937	1028.2	1.4996	1.339
